Assay [1] relates to HEC-1-A. As to the kind of experiment: Cell Proliferation Assay ±NA, HEC-1-A. Format: cell-based. The note with it: Homo sapiens, endometrium, treatment time 72 hr, tested in a growth medium containing nicotinic acid. Here is the method:
(§1) The purpose of this assay is to measure the ability of a compound to inhibit proliferation of endometrium, kidney, adrenal gland, and autonomic ganglia cancer cell lines dependent on the NAMPT-mediated NAD^+ formation in the presence or absence of NA (10 μM) in vitro. One day before the planned initiation of compound treatment portion of the assay, one vial of assay ready frozen cells is thawed, and the cells are grown overnight in the media as shown in Table 3 under 5% CO2 at 37° C. Then, the cell layer is briefly rinsed with 0.25% (w/v) Trypsin-0.038% (w/v) EDTA solution followed with the addition of 3.0 ml of Trypsin-EDTA solution. Once the cell layer is dispersed, 8.0 ml of complete growth medium (Table 3) is added and cells are aspirated by gently pipetting. The cell suspension is transferred to a centrifuge tube and centrifuged at 800-1000 rpm for 3-5 minutes. The supernatant is discarded using a vacuum pump. The cell pellet is suspended in a complete medium by gently pipetting. The cell numbers are counted and adjusted to the appropriate density (Table 3). […] The bottom of each plate is pasted with a white back seal and luminescence is recorded using a Flexstation 3 with the following settings: Luminescence and integration time of 500 ms.

Assay [2] has as its system A498. As to the kind of experiment: Cell Proliferation Assay ±NA, A498. Format: cell-based. The following applies: Homo sapiens, A498, kidney, treatment time 48 hr. The protocol:
as §1

Assay [3] concerns A704. As to the kind of experiment: Cell Proliferation Assay ±NA, A704. Format: cell-based. The note with it: Homo sapiens, A704, kidney, treatment time 72 hr. Here is the method:
as §1

For assay [4], the system named is NCI-H295. As to the kind of experiment: Cell Proliferation Assay ±NA, NCI-H295. The note with it: NCI-H295, adrenal gland, treatment time 144 hr. Format: cell-based. The protocol: as §1
For assay [5], the system named is NAMPT-mediated NAD+ formation in A2780 tumors. As to the kind of experiment: IVTI Assay (NAD+ formation in A2780 tumors). The following applies: A2780 xenograft, female nude mice, oral gavage, after 2 doses (7 hours after second dose); ± SE. Format: in vivo. Here is the method:
The purpose of this assay is to measure the ability of a test compound to inhibit the NAMPT-mediated NAD^+ formation in tumors in an animal model. A2780 cells (ATCC) are grown as described above for the NAD^+ assay (Assay for NAD^+/NMN Levels in A2780 Cells). The cells (5×10^6/animal) are mixed with MATRIGEL® (1:1) and implanted subcutaneously into the rear flank of the mice (female nude mice, Harlan). The implanted tumor cells grow as solid tumors. The tumor volume and body weight are measured twice a week with a caliper. After tumor volume reaches approximately 300-500 mm^3, animals are randomized and grouped into positive control (described herein; 5 animals/group) and compound treatment groups (5 animals/group). The compound (formulated in 20% of CAPTISOL® and 25 mM of phosphate buffer, pH 2) and positive control (20% of CAPTISOL® and 25 mM of phosphate buffer, pH 2) are administered by oral gavage. Compound doses are in the range of 0.10 to 25 mg/kg. […] The resulting preparations (0.5 mL each) are filtered (with a 10K cutoff filter) to remove hemoglobin because red color interferes with the absorbance. […] NAD^+ quantitation is carried out using a NAD^+/NADH cycling assay kit (BioVision, cat#337-100-1). […] The percent inhibition of compound treated groups is calculated relative to the minimum inhibition groups. […]

Assay [6] relates to SW13. As to the kind of experiment: Cell Proliferation Assay ±NA, SW13. Format: cell-based. The following applies: Homo sapiens, SW13, adrenal gland, treatment time 72 hr. Here is the method:
as §1

[7] abbreviates: NA 0.0 μM, read-out: IC50 (μM) NA (0.0 μM).
[8] abbreviates: NA 10 μM, read-out: IC50 (μM) NA (10 μM).

Like-named read-outs stand apart in the source and are kept apart here. Some results are limits rather than exact numbers.

For the compound `CC(C)(O)CS(=O)(=O)Nc1ccc2c(c1)CCN(C(=O)COc1cccnc1)C2` [Example 1, 2-Hydroxy-2-methyl-N-[2-[2-(3-pyridyloxy)acetyl]-3,4-dihydro-1H-isoquinolin-6-yl]propane-1-sulfonamide], the half-maximal inhibitory concentration (IC50) in assay [1] (setting [7]) is above 2 µM; in assay [1] (setting [8]), above 2 µM; in assay [2] (setting [7]), 1.84 µM; in assay [2] (setting [8]), above 2 µM; in assay [3] (setting [7]) it was 0.37 µM; in assay [3] (setting [8]), above 2 µM. Further, the half-maximal inhibitory concentration (IC50) came out at 0.1 µM in assay [4] (setting [7]), 0.06 µM in assay [4] (setting [8]), 0.05 µM in assay [6] (setting [7]) and 0.02 µM in assay [6] (setting [8]). Moreover, in assay [5], the “TED50 (dose for 50% inhibition of NAD+ formation in tumor)” value worked out at 2.56 ± 0.37 mg/kg.

Values taken from patent publication US20160229835A1, “NOVEL PYRIDYLOXYACETYL TETRAHYDROISOQUINOLINE COMPOUNDS USEFUL AS NAMPT INHIBITORS” (ELI LILLY AND COMPANY, priority 2013, published 2016).
